The supplement of paper PMC10307832

Key:
Assay in all cases: relative viability (nuclei count vs DMSO), 5 days (fraction); higher = more cells survive
Olaparib + Navitoclax = compound: O=C(c1cc(Cc2n[nH]c(=O)c3ccccc23)ccc1F)N1CCN(C(=O)C2CC2)CC1 [Olaparib] + CC1(C)CCC(c2ccc(Cl)cc2)=C(CN2CCN(c3ccc(C(=O)NS(=O)(=O)c4ccc(N[C@H](CCN5CCOCC5)CSc5ccccc5)c(S(=O)(=O)C(F)(F)F)c4)cc3)CC2)C1 [Navitoclax] (partner 0.5 µM)
How it was run: (§1)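 Lung cancer cell lines were seeded in 1536-well plates and dosed by pin tool the next day, with either a single drug or a fixed anchor-drug dose combined with five library-drug doses (not always all listed) spaced in √10 steps. Five days later, one step fixed the cells and stained their nuclei (final 0.05% Triton X-100, 1% formaldehyde, 1 ug/ml Hoechst), and nuclei were counted on 4× images. Relative viability is the nuclei count in treated wells divided by the count in vehicle wells, and each value is the median of duplicate plates.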

Crizotinib + Lapatinib = compound: C[C@@H](Oc1cc(-c2cnn(C3CCNCC3)c2)cnc1N)c1c(Cl)ccc(F)c1Cl [Crizotinib] + CS(=O)(=O)CCNCc1ccc(-c2ccc3ncnc(Nc4ccc(OCc5cccc(F)c5)c(Cl)c4)c3c2)o1 [Lapatinib] (partner 2 µM)
How it was run: as §1

Carfilzomib + Navitoclax = compound: CC(C)C[C@H](NC(=O)[C@H](CCc1ccccc1)NC(=O)CN1CCOCC1)C(=O)N[C@@H](Cc1ccccc1)C(=O)N[C@@H](CC(C)C)C(=O)[C@@]1(C)CO1 [Carfilzomib] + CC1(C)CCC(c2ccc(Cl)cc2)=C(CN2CCN(c3ccc(C(=O)NS(=O)(=O)c4ccc(N[C@H](CCN5CCOCC5)CSc5ccccc5)c(S(=O)(=O)C(F)(F)F)c4)cc3)CC2)C1 [Navitoclax] (partner 0.5 µM)
How it was run: as §1

Carfilzomib + Decitabine = compound: CC(C)C[C@H](NC(=O)[C@H](CCc1ccccc1)NC(=O)CN1CCOCC1)C(=O)N[C@@H](Cc1ccccc1)C(=O)N[C@@H](CC(C)C)C(=O)[C@@]1(C)CO1 [Carfilzomib] + Nc1ncn([C@H]2C[C@H](O)[C@@H](CO)O2)c(=O)n1 [Decitabine] (partner 2 µM)
How it was run: as §1

Cell Line | relative viability (Olaparib + Navitoclax; first compound 0.08 µM) | relative viability (Olaparib + Navitoclax; first compound 0.253 µM) | relative viability (Olaparib + Navitoclax; first compound 2.53 µM) | relative viability (Olaparib + Navitoclax; first compound 8 µM) | relative viability (Crizotinib + Lapatinib; first compound 0.01 µM) | relative viability (Crizotinib + Lapatinib; first compound 0.03162 µM) | relative viability (Crizotinib + Lapatinib; first compound 0.1 µM) | relative viability (Crizotinib + Lapatinib; first compound 0.3162 µM) | relative viability (Crizotinib + Lapatinib; first compound 1 µM) | relative viability (Carfilzomib + Navitoclax; first compound 0.001 µM) | relative viability (Carfilzomib + Navitoclax; first compound 0.003162 µM) | relative viability (Carfilzomib + Navitoclax; first compound 0.01 µM) | relative viability (Carfilzomib + Navitoclax; first compound 0.03162 µM) | relative viability (Carfilzomib + Navitoclax; first compound 0.1 µM) | relative viability (Carfilzomib + Decitabine; first compound 0.001 µM) | relative viability (Carfilzomib + Decitabine; first compound 0.003162 µM) | relative viability (Carfilzomib + Decitabine; first compound 0.01 µM) | relative viability (Carfilzomib + Decitabine; first compound 0.03162 µM) | relative viability (Carfilzomib + Decitabine; first compound 0.1 µM)
NCI-H460 | 1.18 | 0.94 | 0.815 | 0.424 | 0.977 | 1.24 | 0.983 | 0.94 | 0.982 | 1.08 | 1.21 | 1.17 | 0.357 | 0.0107 | 0.453 | 0.514 | 0.394 | 0.414 | 0.0292
SK-MES-1 | 1.15 | 1.07 | 1.13 | 0.825 | 0.415 | 0.414 | 0.51 | 0.43 | 0.541 | 1.29 | 1.25 | 1.26 | 0.416 | 0.172 | 0.385 | 0.375 | 0.437 | 0.356 | 0.181
NCI-H661 |  |  |  |  | 0.551 | 0.461 | 0.43 | 0.469 | 0.539 |  |  |  |  |  | 0.583 | 0.585 | 0.568 | 0.598 | 0.394
NCI-H1993 | 0.872 | 0.914 | 1.19 | 1.27 | 0.687 | 0.843 | 0.781 | 0.681 | 0.707 | 0.856 | 0.773 | 1.08 | 0.861 | 0.527 | 0.542 | 0.589 | 0.658 | 0.541 | 0.461
NCI-H23 | 0.953 | 0.684 | 0.603 | 0.387 | 1.12 | 1.03 | 1.09 |  | 1.18 | 0.797 | 0.799 | 0.987 | 0.227 | 0.152 | 0.33 | 0.336 | 0.307 | 0.24 | 0.164
NCI-H2342 |  |  |  |  |  |  |  |  |  |  |  |  |  |  | 0.711 | 0.78 | 0.782 | 0.887 | 0.585
EBC-1 | 0.46 | 0.403 | 0.44 | 0.318 | 0.213 | 0.223 | 0.197 | 0.206 | 0.205 | 0.415 | 0.288 | 0.184 | 0.13 | 0.139 |  |  |  |  | 
NCI-H2228 | 1.14 | 0.809 | 0.707 | 0.587 | 0.814 | 0.827 | 1.06 | 0.488 | 0.412 | 1.06 | 1.56 | 0.788 | 0.699 | 0.0563 |  |  |  |  | 
NCI-H1299 | 1.07 | 0.995 | 1.04 | 0.944 | 0.966 | 0.942 | 0.896 | 0.996 | 0.955 | 1.08 | 1.05 | 1.03 | 0.887 | 0.195 |  |  |  |  | 
NCI-H522 |  |  |  |  |  |  |  |  |  |  |  |  |  |  | 0.582 | 0.631 | 0.615 | 0.584 | 0.353
SW 900 |  |  |  |  |  |  |  |  |  |  |  |  |  |  |  | 0.5 | 0.344 | 0.197 | 0.22
NCI-H1563 |  |  |  |  | 0.88 | 0.962 | 0.936 | 0.753 | 0.789 |  |  |  |  |  |  |  |  |  | 
ChaGo-K-1 | 1.44 | 0.989 | 0.953 | 0.848 |  |  |  |  |  |  | 1.58 | 1.01 | 0.693 | 0.385 | 0.476 | 0.55 | 0.494 | 0.322 | 0.174
